Reference: patent US11148991B2, “5-bromo-2-(alpha-hydroxypentyl)benzoic acid sodium salts in different crystal forms, and preparation method thereof” (priority 2013, dated 2021)

Legend:
[1] = Stability in water and methanol solution; format: physicochemical; details: sodium salt
[2] = Solubility in water and methanol; format: physicochemical; details: sodium salt
rat MCAO model = assay: Brain infarction volume and brain edema volume in rats with local brain ischemia (MCAO model); format: in vivo, Wistar rats
Excerpt: Wistar rats (50% of rats is female and another 50% of rats is male); 5-bromo-2-(α-hydroxypentyl)benzoic acid sodium salt (BZP, in the form of amorphous form, crystal form A and crystal form B, prepared according to the present invention), prepared in double distilled water; […] is in the form of white powder, manufactured by Beijing Chemical Works.
Administration method: 5-bromo-2-(α-hydroxypentyl)benzoic acid sodium salt (BZP) was intravenously injected at one hour before MCAO, with the dosage of 12 mg/kg; 5-bromo-2-(α-hydroxypentyl)benzoic acid sodium salt (BZP) was used to intragastric administration at one hour before MCAO, with the dosage of 20 mg/kg. 2-(α-hydroxypentyl)benzoic acid potassium salt (NBP-K) was used as positive control, and its dosage (calculated in moles) is the same as that of 5-bromo-2-(α-hydroxypentyl)benzoic acid sodium salt, that is, the dosage of intravenous injection is 9.6 mg/kg, and the dosage of intragastric administration is 15.9 mg/kg.
Preparation of MCAO model: Establish a focal brain ischemia-reperfusion injury model by cerebral artery obstruction in rats with suture-occluded method. Rats were intraperitoneally injected with 10% chloral hydrate to anesthetize. Rats were fixed on back and the skin of neck center was incised. The left common carotid artery, external carotid artery, and internal carotid artery were subjected to blunt dissection. The pterygopalatine artery was ligated, only remaining cranial trunk of internal carotid artery; a prepared nylon rope (burning diameter 0.3 mm) was inserted via external carotid artery incision into the bifurcation of the […], and was pushed along the cranial direction of the internal carotid artery. […] This indicates one side of the middle cerebral artery occlusion model was completed. Sutured the incision, remained the end of nylon line out of the skin. For reperfusion, the nylon line was gently pulled out. If feel force of resistance, this indicates the end of nylon line has returned to the trunk of external carotid artery, thereby accomplishing reperfusion.
Determination of infarction volume: After being subjected to ischemia for 2 hours and reperfusion for 24 hours, the heads of rats were cut off. Forebrain was removed and cut into six pieces, each piece being 2 mm. The pieces were stained with TC, and incubated at 37° C. for 30 minutes. Normal issues were stained to be red, but the infarcted issues were stained to be white. Took photos with digital camera, and calculated the percentage of the infarcted area relative to the spherical area of brain by Photoshop.

Rat = assay: Sub-acute toxicity, rat
[3] = Acute toxicity (LD50), rat; details: in vivo
[4] = Acute toxicity (LD50), mouse; details: in vivo
[5] = intragastric administration one hour before MCAO, BZP 20 mg/kg, NBP-K 15.9 mg/kg, sodium salt
[6] = intravenous injection one hour before MCAO, 12 mg/kg, sodium salt, 12 mg/kg
[7] = intravenous injection one hour before MCAO, BZP 12 mg/kg, NBP-K 9.6 mg/kg, ischemia 2 hours, reperfusion 24 hours, sodium salt
[8] = intravenous injection one hour before MCAO, BZP 12 mg/kg, NBP-K 9.6 mg/kg, sodium salt
[9] = intragastric administration one hour before MCAO, BZP 20 mg/kg, NBP-K 15.9 mg/kg
[10] = intravenous injection one hour before MCAO, 12 mg/kg

Structure (SMILES): CCCCC(O)c1ccc(Br)cc1C(=O)[O-].[Na+] (mixture of isomers) [BZP (mixture), 5-bromo-2-(α-hydroxypentyl)benzoic acid sodium salt, reference compound]
- Stability ([1]; in methanol solution): >12 h
- Stability ([1]; in water): >12 h
- Solubility in methanol [2]: 1580 mg/mL
- Solubility in water [2]: 2130 mg/mL

Structure (SMILES): CCCCC(O)c1ccc(Br)cc1C(=O)[O-].[Na+] (stereo not drawn) [5-bromo-2-(α-hydroxypentyl)benzoic acid sodium salt]
- Activity compared with 2-(α-hydroxypentyl)benzoic acid potassium salt (rat MCAO model; at the same dosage, conclusion in words): obviously better than 2-(α-hydroxypentyl)benzoic acid potassium salt
- Effect on brain tissue injury induced by obstruction of cerebral arteries (rat MCAO model; rats, conclusion in words): can obviously reduce brain tissue injury induced by obstruction of cerebral arteries

Structure (SMILES): CCCCC(O)c1ccc(Br)cc1C(=O)[O-].[Na+] (stereo not drawn) [BZP (crystal form A), 5-bromo-2-(α-hydroxypentyl)benzoic acid sodium salt]
- Stability ([1]; in methanol solution, listed as BZP (Form A)): >24 h
- Stability ([1]; in water, listed as BZP (Form A)): >20 h
- Solubility in methanol ([2]; listed as BZP (Form A)): 1800 mg/mL
- Solubility in water ([2]; listed as BZP (Form A)): 2360 mg/mL
- Edema (%) (rat MCAO model; [5]): 2.7 ± 1.30^aa** %
- Infarction volume (%) (rat MCAO model; [5]): 7.13 ± 2.98 aa %
- Inhibition of edema (%) (rat MCAO model; [5]): 87.55%
- Inhibition of infarction volume (%) (rat MCAO model; [5]): 86.65%
- Edema (%) (rat MCAO model; [6]): 3.24 ± 4.11^aa* %
- Inhibition of edema (%) (rat MCAO model; [6]): 81.28%
- Infarction volume (%) (rat MCAO model; [7]): 4.54 ± 1.73 aa %
- Inhibition of infarction volume (%) (rat MCAO model; [8]): 91.50%

Structure (SMILES): CCCCC(O)c1ccc(Br)cc1C(=O)[O-].[Na+] (stereo not drawn) [BZP (crystal form B), 5-bromo-2-(α-hydroxypentyl)benzoic acid sodium salt]
- Stability ([1]; in methanol solution, listed as BZP (Form B)): >24 h
- Stability ([1]; in water, listed as BZP (Form B)): >24 h
- Solubility in methanol ([2]; listed as BZP (Form B)): 1630 mg/mL
- Solubility in water ([2]; listed as BZP (Form B)): 2430 mg/mL
- Edema (%) (rat MCAO model; [5]): 2.87 ± 1.56^aa** %
- Infarction volume (%) (rat MCAO model; [5]): 7.13 ± 2.98^aa** %
- Inhibition of edema (%) (rat MCAO model; [5]): 85.09%
- Inhibition of infarction volume (%) (rat MCAO model; [5]): 86.03%
- Edema (%) (rat MCAO model; [6]): 4.20 ± 2.03a %
- Inhibition of edema (%) (rat MCAO model; [6]): 78.71%
- Infarction volume (%) (rat MCAO model; [7]): 4.76 ± 1.45 aa %
- Inhibition of infarction volume (%) (rat MCAO model; [8]): 91.09%

Structure (SMILES): CCCCC(O)c1ccccc1C(=O)[O-].[K+] (stereo not drawn) [NBP-K, 2-(α-hydroxypentyl)benzoic acid potassium salt, reference compound]
- Sub-acute (Rat; ig): >20 mg/kg
- Sub-acute (Rat; iv): >12 mg/kg
- LD50 ([3]; iv): 230 mg/kg
- LD50 ([3]; po): 623 mg/kg
- LD50 ([4]; iv): 303 mg/kg
- LD50 ([4]; po): 880 mg/kg
- Edema (%) (rat MCAO model; [9]): 11.04 ± 1.48^aa** %
- Infarction volume (%) (rat MCAO model; [9]): 22.28 ± 2.65^aa %
- Inhibition of edema (%) (rat MCAO model; [9]): 42.65%
- Inhibition of infarction volume (%) (rat MCAO model; [9]): 58.3%
- Edema (%) (rat MCAO model; [10]): 12.38 ± 1.29%
- Inhibition of edema (%) (rat MCAO model; [10]): 9.37%
- Inhibition of infarction volume (%) (rat MCAO model; intravenous injection one hour before MCAO, BZP 12 mg/kg, NBP-K 9.6 mg/kg): 54.42%
- Infarction volume (%) (rat MCAO model; intravenous injection one hour before MCAO, BZP 12 mg/kg, NBP-K 9.6 mg/kg, ischemia 2 hours, reperfusion 24 hours): 24.35 ± 4.32^aa %
